Experimental data: US10130641B2, “Compositions of vitamin D and methods for their use and manufacture” (priority 2015, dated 2018)

Experiment: Plasma concentration of vitamin D3 in rats after a single oral dose (absorption / bioavailability study)
Format: in vivo, Wistar rats
Details: for Cmax / Tmax / AUC: Area Under the plasma conc.-time Curve: rat plasma, 50,000 IU oral; for AUC: Area Under the plasma conc.-time Curve: trapezoid rule; for Mean plasma concentration of vitamin D3: rat, 50,000 IU oral
Experimental: The present study was undertaken to compare the rate of absorption of vitamin D3, from formulated vitamin D3 with tomato seed oil and high-fat meal. The absorption was studied by serial measurements of the plasma concentration of vitamin D3 after ingestion of a pharmacological dose of the vitamin dissolved in the vehicles.
Male Albino Wistar rats were used. Animals were kept under a twelve-hour light/dark cycle. Group I was treated with normal diet and vitamin D3 (50,000 IU). Group II was given Vitamin D3 (50,000 IU) with High-Fat diet. Group III was treated with Vitamin D3 (50,000 IU) formulation in tomato seed oil orally. 10 mL/kg body weight was used for gavage administration. […] Animals were ether anesthetized and blood samples (approximately 0.5 mL) were collected via retro-orbital sinus puncture.
Blood samples were collected in heparinized eppendorf tubes. Tubes were inverted several times to mix and were then placed on ice and centrifuged to separate plasma within 1 h time. After centrifugation, plasma was transferred into storage tubes (0.5 mL), which were stored frozen (approximately −70° C.) until analyzed.
Plasma processing involved liquid-liquid extraction using acetonitrile and methanol (80:20). 100 μL aliquot of plasma was mixed with 1 mL of acetonitrile and methanol. After vortex mixing for 1 min, the sample was centrifuged at 7,000 rpm at 4° C. for 10 min to remove precipitated proteins; the supernatant was transferred to a clean tube and dried under nitrogen at room temperature (approximately 25° C.). After the evaporation was completed, the residue was reconstituted in 100 μL of methanol with 5 min of sonication, added to 400 μL of water, vortex mixed, and centrifuged again. The resulting supernatant was transferred to a sample vial for instrumental analysis.
Chromatography was performed using a Phenomenex C18 […]×4.6 mm, 5 μm column, maintained at a temperature of 35° C. A flow rate of 1 mL/min was used; mobile phase acetonitrile and methanol (80:20); elution gradient program, injection volume 5 μL, detection UV, 280 nm. Total run time was 15 min.
The data was represented in a plasma level-time curve. The area under time curve (AUC) was calculated using Trapezoid rule. The maximum concentration (Cmax) and maximum time (Tmax) were obtained directly from generated data. The maximum plasma concentration (Cmax) and the time to reach Cmax (Tmax) were obtained directly from the plasma concentration-time curve. All values were expressed as mean±standard deviation (SD) except Tmax mentioned as median.

SMILES: C=C1CC[C@H](O)C/C1=C/C=C1\CCC[C@]2(C)[C@@H]([C@H](C)CCCC(C)C)CC[C@@H]12 [Vitamin D3 + Normal Diet, cholecalciferol]
- Cmax (normal diet): 47030 ± 4150 ng/mL
- Tmax (normal diet): 24 h
- AUC: Area Under the plasma conc.-time Curve (normal diet): 3478 + 1758 μg · hr/ml
- Mean plasma concentration of vitamin D3 (normal diet, 0 min): 0 ng/mL
- Mean plasma concentration of vitamin D3 (normal diet, 30 min): 0 ng/mL
- Mean plasma concentration of vitamin D3 (normal diet, 1 hrs): 1867 ± 800 ng/mL
- Mean plasma concentration of vitamin D3 (normal diet, 2 hrs): 4310 ± 1530 ng/mL
- Mean plasma concentration of vitamin D3 (normal diet, 3 hrs): 9870 ± 4140 ng/mL
- Mean plasma concentration of vitamin D3 (normal diet, 4 hrs): 12000 ± 4970 ng/mL
- Mean plasma concentration of vitamin D3 (normal diet, 6 hrs): 10740 ± 8060 ng/mL
- Mean plasma concentration of vitamin D3 (normal diet, 8 hrs): 13590 ± 4160 ng/mL
- Mean plasma concentration of vitamin D3 (normal diet, 12 hrs): 16060 ± 3500 ng/mL
- Mean plasma concentration of vitamin D3 (normal diet, 24 hrs): 47030 ± 4150 ng/mL
- Mean plasma concentration of vitamin D3 (normal diet, 48 hrs): 17940 ± 1330 ng/mL
- Mean plasma concentration of vitamin D3 (normal diet, 72 hrs): 1070 ± 350 ng/mL

SMILES: C=C1CC[C@H](O)C/C1=C/C=C1\CCC[C@]2(C)[C@@H]([C@H](C)CCCC(C)C)CC[C@@H]12 [Vitamin D3 + High-Fat Diet, cholecalciferol]
- Cmax (high-fat diet): 86090 ± 12140 ng/mL
- Tmax (high-fat diet): 12 h
- AUC: Area Under the plasma conc.-time Curve (high-fat diet): 1595 + 600.6 μg · hr/ml
- Mean plasma concentration of vitamin D3 (high-fat diet, 0 min): 0 ng/mL
- Mean plasma concentration of vitamin D3 (high-fat diet, 30 min): 0 ng/mL
